Assay results published in the NIST ThermoML archive (doi:10.1021/je0302295).
Numbers after ± are expanded uncertainties.

How the values were obtained:
[1] = 293.15 K, 101.33 kPa, Liquid
[2] = refractive index (Na D-line) (dimensionless); conditions: 293.15 K; 101.33 kPa; Liquid; Standard Abbe refractometry
[3] = activity coefficient (dimensionless); of the first substance listed, at infinite dilution; xn = mol fraction of the nth substance listed; conditions: Liquid, Static method, x1 = 0

mass density [1] [kg/m3] | refractive index [2] | activity coefficient ([3]; 303.15 K) | activity coefficient ([3]; 313.15 K) | activity coefficient ([3]; 323.15 K) | activity coefficient ([3]; 333.15 K) | activity coefficient ([3]; 343.15 K) | mass density ([1]; Vibrating tube method) [kg/m3] | Structure (SMILES)
 |  | 31.3 ± 3 | 24.5 ± 1 | 19.3 ± 1 | 14.6 ± 0.8 | 11.6 ± 0.4 |  | CCCCO [butan-1-ol] + CCCCCCC
 |  | 32.1 ± 1.6 | 23.9 ± 0.8 | 18.4 ± 0.4 | 14.5 ± 0.4 | 11.2 ± 0.8 |  | CCCCO [butan-1-ol] + CCCCCCCC
803.55 ± 0.29 | 1.3855 ± 0.0007 |  |  |  |  |  |  | CCCO [propan-1-ol]
 |  | 36.2 ± 1.1 | 27.2 ± 0.7 | 21.2 ± 1 | 15.8 ± 0.4 | 12.5 ± 0.2 |  | CCCO [propan-1-ol] + CCCCCCC
 |  | 34.2 ± 1.8 | 26.5 ± 1.4 | 20.5 ± 0.5 | 16.2 ± 0.3 | 12.9 ± 0.2 |  | CCCO [propan-1-ol] + CCCCCCCC

The next lines start with the compound.

Structure (SMILES) | mass density [1] [kg/m3] | refractive index [2] | activity coefficient ([3]; 303.15 K) | activity coefficient ([3]; 313.15 K) | activity coefficient ([3]; 323.15 K) | activity coefficient ([3]; 333.15 K) | activity coefficient ([3]; 343.15 K) | mass density ([1]; Vibrating tube method) [kg/m3]
CCCCO [butan-1-ol] | 809.68 ± 0.29 | 1.3992 ± 0.0007 |  |  |  |  |  | 
CCCCCCC [heptane] |  | 1.3876 ± 0.0007 |  |  |  |  |  | 683.79 ± 0.21
CCCCCCCC [octane] |  | 1.3973 ± 0.0007 |  |  |  |  |  | 702.76 ± 0.2
